Several values for one entry are separate records, joined by “and”; a condition that tells them apart may be missing. Identical values can stand only once. Like-named read-outs stand apart in the source and are kept apart here.
Columns and labels:
HepaRG cells [1] = experiment: Time-dependent PA depletion and PANO formation in cell culture medium of HepaRG cells at 37 °C and 4 °C (LC-MS/MS)
Experimental: In order to measure time-dependent depletion of PA and PANO content in cell culture medium, cells were seeded at a density of 0.2 × 10^6 cells per well in a 6-well plate and cultivated as described in Section 4.2. After four weeks of cultivation, cells were adapted to serum-free medium and medium substituted with insulin, transferrin, selenium (ITS) serum extender (Capricorn Scientific, Ebsdorfergrund, Germany) 48 h prior to PA incubation for optimal LC-MS/MS measurements. […] Samples were taken after 2 h, 4 h, 8 h and 24 h.
Briefly, chromatographic separation of PA/PANO analytes was achieved on a 50 × 2.1 mm Kinetex ™ 2.6 μm CoreShell EVO C18 100 Å column protected by a SecurityGuard ™ ULTRA EVO C 18 2.1 mm guard column (both Phenomenex, Aschaffenburg, Germany) at a flow rate of 0.4 mL/min on a Shimadzu high performance liquid chromatography (HPLC) apparatus (LC-20AB, SIL-20AC HT, CTO-20AC, CBM-20A, Duisburg, Germany) coupled to an API4000 triple quadrupole MS (Sciex, Darmstadt, Germany). The following MS parameters were used for measurements in positive electrospray ionisation (ESI+) mode: ionisation voltage 2500 V, nebuliser gas 50 psi, heating gas 50 psi, curtain gas 30 psi, temperature 600 °C, collision gas level 7. The substance specific parameters are summarized in Kaltner et al. 2019 [79].

[2] = Cell viability (MTT assay) of HepaRG cells with and without transporter inhibitors; assay type: cell-based, human; settings: human, HepaRG cells
Experimental: (§1) In the case of TEA, cells were pre-incubated 24 h prior to PA treatment. The inhibitors were applied anew at PA incubation.
(§2) To analyze the cytotoxic effects of PAs on HepaRG cells with non-inhibited and inhibited hepatic transporters, the cells were seeded at a density of 9000 cells per well in the inner 60 wells of a 96-well plate and cultivated as described in Section 4.2. After four weeks of cultivation, FBS concentration in the cell culture medium was reduced to 2% for 48 h prior incubation. Thereby, inhibitory effects of peptide growth factors from the FBS on xenobiotic-metabolizing enzymes were minimized. […] The cells were pre-incubated with pharmacological inhibitors as described in Section 4.3. […] Cell viability was analyzed via the MTT test. 10 µl MTT reagent (5 mg/mL MTT dissolved in phosphate-buffered saline, PBS) was added per well and incubated for 1 h at 37 °C. The supernatant was discarded, and the violet formazan crystals dissolved in 130 µL desorption solution (0.7% sodium dodecyl sulfate in propan-2-ol). After shaking for 20 min (under protection from light), absorbance was measured on a TecanM200Pro spectrometer (Tecan Group Ltd., Männedorf, Switzerland) at a wavelength of 570 nm, along with a reference wavelength of 630 nm.

HepaRG cells [3] = experiment: as above; assay type: cell-based, human; settings: for viability [%], single replicates: repl. 1-6; for Cell viability (MTT), percent of solvent control, Mean [%]: 24 h, listed as Sc
Experimental: as §1, §2

[4] = mean of 6 replicates, no inhibitor, read-out: viability, MW [%]
[5] = repl. 1-6, read-out: viability [%], single replicates

## C/C=C1/C[C@@H](C)[C@@](C)(O)C(=O)OCC2=CCN3CC[C@@H](OC1=O)[C@@H]23 [Senecionine, senecionine]
HepaRG cells [1]
  reduction of PA content in the supernatant: highest decline
  uptake and toxicity (grading): strong
HepaRG cells [1]; human
  PANO in medium, Mean [%]: 0%
  PANO in medium, single replicates (repl.): 0%
[2]; [4]
  viability at 24 h, 1 µM: 100%
  viability at 24 h, 10 µM: 84.6%
[2]; [5]
  viability at 24 h, 1 µM: 95.1%
  viability at 24 h, 10 µM: 80%
[2]; 50 µM, mean of 6 replicates, no inhibitor, read-out: viability, MW [%]
  viability at 24 h, 50 µM: 65%
[2]; 100 µM, mean of 6 replicates, no inhibitor, read-out: viability, MW [%]
  viability at 24 h, 100 µM: 59.7%
[2]; 250 µM, mean of 6 replicates, no inhibitor, read-out: viability, MW [%]
  viability at 24 h, 250 µM: 48.7%
[2]; HepaRG, 250 µM PA only, 24 h, read-out: Cell viability (MTT), percent of solvent control, Mean [%]
  viability at 24 h, 250 µM: 46%
[2]; with 5 µM Ko143, HepaRG, 250 µM PA + Ko143 (5 µM, 1 h pre-incubation), 24 h, read-out: Cell viability (MTT), percent of solvent control, Mean [%]
  viability at 24 h, 250 µM: 46.5%
[2]; with 50 µM MK-571, HepaRG, 250 µM PA + MK571 (50 µM, 1 h pre-incubation), 24 h, read-out: Cell viability (MTT), percent of solvent control, Mean [%]
  viability at 24 h, 250 µM: 59.1%
[2]; with CsA 10 µM, HepaRG, 250 µM PA + CsA (10 µM, 1 h pre-incubation), 24 h, read-out: Cell viability (MTT), percent of solvent control, Mean [%]
  viability at 24 h, 250 µM: 63%
[2]; with Qu 100 µM, HepaRG, 250 µM PA + Qu (100 µM, 1 h pre-incubation), 24 h, read-out: Cell viability (MTT), percent of solvent control, Mean [%]
  viability at 24 h, 250 µM: 90%
[2]; with TEA 3 mM, HepaRG, 250 µM PA + TEA (3 mM, 24 h pre-incubation), 24 h, read-out: Cell viability (MTT), percent of solvent control, Mean [%]
  viability at 24 h, 250 µM: 69%
HepaRG cells [3]; 1 µM
  viability [%], single replicates: 104.702% and 96.5101% and 108.622% and 97.0096% and 97.8347%
HepaRG cells [3]; 10 µM
  viability [%], single replicates: 86.1735% and 91.8709% and 86.9963% and 83.2717% and 79.1258%
HepaRG cells [3]; 50 µM
  viability [%], single replicates: 59.5192% and 77.2207% and 70.6602% and 63.183% and 55.3454%
HepaRG cells [3]; 100 µM
  viability [%], single replicates: 53.5295% and 51.7769% and 80.0886% and 68.6733% and 54.6212% and 49.5185%
HepaRG cells [3]; 250 µM
  viability [%], single replicates: 44.9713% and 47.0747% and 66.5507% and 52.719% and 45.8871% and 35.0536%
HepaRG cells [3]; HepaRG, 2.5 µM, Figure S2
  cytotoxicity of the applied concentration: not cytotoxic
HepaRG cells [3]; HepaRG, 250 µM PA + CsA (10 µM, 1 h pre-incubation)
  Cell viability (MTT), percent of solvent control, Mean [%]: 63.5771%
HepaRG cells [3]; HepaRG, 250 µM PA + Qu (100 µM, 1 h pre-incubation)
  Cell viability (MTT), percent of solvent control, Mean [%]: 91.9218%
HepaRG cells [3]; HepaRG, 250 µM PA + TEA (3 mM, 24 h pre-incubation)
  Cell viability (MTT), percent of solvent control, Mean [%]: 69.5844%
HepaRG cells [3]; HepaRG, 250 µM PA only
  Cell viability (MTT), percent of solvent control, Mean [%]: 46.8929%

Reference: article PMC8067754, “Active Transport of Hepatotoxic Pyrrolizidine Alkaloids in HepaRG Cells” (International Journal of Molecular Sciences, 2021)
